Data reported in ChEMBL document CHEMBL5537169, “Structure-Activity Relationships and Discovery of (S)-6-Isopropyl-2-methoxy-3-(3-methoxypropoxy)-10-oxo-5,10-dihydro-6H-pyrido[1,2-h][1,7]naphthyridine-9-carboxylic Acid (AB-452), a Novel Orally Available HBV RNA Destabilizer” (J Med Chem, 2024).

Columns and labels:
[1] = system: Hepatitis B virus; assay: Antiviral activity against HBV infected in human HepG2.2.15 cells assessed as inhibition of HBsAg level incubated for 6 days by microplate-based chemiluminescence immunoassay; format: functional, organism-based; settings: HepG2 2.2.15, 144 h
[2] = system: HepG2 2.2.15; assay: Cytotoxicity against human HepG2.2.15 cells by Cell-titer Glo luminescent assay; format: functional
[3] = Clearance in CD-1 mouse liver microsomes at 0.3 uM pre-incubated for 10 mins followed by NADPH addition incubated for 60 mins by LC-MS/MS analysis; format: ADME, Microsome; settings: time 70 min, read-out: CLH
[4] = Clearance in CD-1 mouse at 2 mg/kg,iv measured at 0.083 to 24 hrs post administration by LC-MS/MS analysis; format: ADME, organism-based; settings: in vivo, time 0.083-24 hrs
[5] = Half life in CD-1 mouse at 10 mg/kg,po measured at 0.083 to 24 hrs post administration by LC-MS/MS analysis; format: ADME, organism-based; settings: in vivo, time 0.083-24 hrs
[6] = Apparent volume of distribution at steady state in CD-1 mouse at 10 mg/kg,po measured at 0.083 to 24 hrs post administration by LC-MS/MS analysis; format: ADME, organism-based; settings: in vivo, time 0.083-24 hrs
[7] = Cmax in CD-1 mouse at 10 mg/kg,po measured at 0.083 to 24 hrs post administration by LC-MS/MS analysis; format: ADME, organism-based; settings: in vivo, time 0.083-24 hrs
[8] = Tmax in CD-1 mouse at 10 mg/kg,po measured at 0.083 to 24 hrs post administration by LC-MS/MS analysis; format: ADME, organism-based; settings: in vivo, time 0.083-24 hrs
[9] = AUCinfinity in CD-1 mouse at 10 mg/kg,po measured at 0.083 to 24 hrs post administration by LC-MS/MS analysis; format: ADME, organism-based; settings: in vivo, time 0.083-24 hrs
[10] = Oral bioavailability in CD-1 mouse at 10 mg/kg measured at 0.083 to 24 hrs by LC-MS/MS analysis; format: ADME, organism-based; settings: in vivo, time 0.083-24 hrs
[11] = Drug accumulation in CD-1 mouse liver at 10 mg/kg,po measured at 0.083 to 24 hrs post administration by LC-MS/MS analysis; format: ADME, organism-based; settings: in vivo, time 0.083-24 hrs
[12] = Half life in Sprague-Dawley rat at 10 mg/kg,po measured at 0.083 to 24 hrs post administration by LC-MS/MS analysis; format: ADME, organism-based; settings: in vivo, po, 10 mg/kg, time 0.083-24 hrs
[13] = Apparent volume of distribution at steady state in Sprague-Dawley rat at 10 mg/kg,po measured at 0.083 to 24 hrs post administration by LC-MS/MS analysis; format: ADME, organism-based; settings: in vivo, time 0.083-24 hrs
[14] = Cmax in Sprague-Dawley rat at 10 mg/kg,po measured at 0.083 to 24 hrs post administration by LC-MS/MS analysis; format: ADME, organism-based; settings: in vivo, po, 10 mg/kg, time 0.083-24 hrs
[15] = Tmax in Sprague-Dawley rat at 10 mg/kg,po measured at 0.083 to 24 hrs post administration by LC-MS/MS analysis; format: ADME, organism-based; settings: in vivo, po, 10 mg/kg, time 0.083-24 hrs
[16] = AUCinfinity in Sprague-Dawley rat at 10 mg/kg,po measured at 0.083 to 24 hrs post administration by LC-MS/MS analysis; format: ADME, organism-based; settings: in vivo, po, 10 mg/kg, time 0.083-24 hrs
[17] = Oral bioavailability in Sprague-Dawley rat at 10 mg/kg measured at 0.083 to 24 hrs by LC-MS/MS analysis; format: ADME, organism-based; settings: in vivo, po, 10 mg/kg, time 0.083-24 hrs
[18] = Drug accumulation in Sprague-Dawley rat liver at 10 mg/kg,po measured at 0.083 to 24 hrs post administration by LC-MS/MS analysis; format: ADME, organism-based; settings: in vivo, time 0.083-24 hrs

Question: For `CCc1cc2c(cc1OCCCOC)OC[C@@H](C(C)C)n1cc(C(=O)O)c(=O)cc1-2`, which EC50 [1] is on record?
Answer: 6 nM

Question: What about the CC50 [2] of the same compound?
Answer: 33000 nM

Question: And the microsomal CLint at 0.3 µM [3]?
Answer: 10 µL/min/mg

Question: And the clearance [4]?
Answer: 21 mL/min/kg

Question: What about the half-life [5] of the same compound?
Answer: 0.8 h

Question: And the “Vdss(app)” value [6]?
Answer: 1.1 L/kg

Question: What about the Cmax [7] of the same compound?
Answer: 844 ng/mL

Question: What about the Tmax [8] of the same compound?
Answer: 2.4 h

Question: What about the AUC(0-inf) [9] of the same compound?
Answer: 7080 ng·h/mL

Question: And the bioavailability [10]?
Answer: 91%

Question: And the Ct [11]?
Answer: 5 ng/g

Question: What about the t1/2 [12] of the same compound?
Answer: 2.7 h

Question: And the “Vdss(app)” value [13]?
Answer: 0.9 L/kg

Question: And the Cmax [14]?
Answer: 351 ng/mL

Question: What about the Tmax [15] of the same compound?
Answer: 3.3 h

Question: What about the AUC [16] of the same compound?
Answer: 2860 ng·h/mL

Question: What about the F [17] of the same compound?
Answer: 24%

Question: What about the Ct [18] of the same compound?
Answer: 47 ng/g

Question: With `COc1cc2c(cc1Cl)-c1cc(=O)c(C(=O)O)cn1[C@@H](C(C)C)CO2` as the compound, how does the EC50 [1] read?
Answer: 3500 nM

Question: And the CC50 [2]?
Answer: > 50000 nM

Question: For `COc1nc2c(cc1OCCCO)C[C@@H](C(C)C)n1cc(C(=O)O)c(=O)cc1-2`, which EC50 [1] is on record?
Answer: 7 nM

Question: And the CC50 [2]?
Answer: > 50000 nM

Question: For `CC(C)C1Cc2sccc2-c2cc(=O)c(C(=O)O)cn21` (stereo not drawn), which EC50 [1] is on record?
Answer: 2400 nM

Question: And the CC50 [2]?
Answer: > 50000 nM

Question: With `COCCCOc1cc2c([nH]c1=O)-c1cc(=O)c(C(=O)O)cn1[C@H](C(C)C)C2` as the compound, how does the EC50 [1] read?
Answer: 450 nM

Question: And the CC50 [2]?
Answer: > 50000 nM

Question: What does the source list for `CC(C)[C@@H]1COc2cc(OCCCN3CCOCC3)c(Cl)cc2-c2cc(=O)c(C(=O)O)cn21`?
Answer: EC50 [1]: 140 nM; CC50 [2]: > 50000 nM; microsomal CLint at 0.3 µM [3]: 1 µL/min/mg

Question: What does the source list for `COc1cc2c(nc1OC)-c1cc(=O)c(C(=O)O)cn1[C@@H](C(C)C)C2`?
Answer: EC50 [1]: 300 nM; CC50 [2]: > 50000 nM

Question: Which results are given for `CCC1(C(C)C)Cc2cc(OCCCOC)c(OC)nc2-c2cc(=O)c(C(=O)O)cn21` (stereo not drawn)?
Answer: EC50 [1]: 6 nM; CC50 [2]: > 50000 nM
